Source: patent US9732087B2, “Diamino-pyridine, pyrimidine, and pyridazine modulators of the histamine H4 receptor” (JANSSEN PHARMACEUTICA NV, priority 2008, dated 2017)

These compounds were tested against human H4 receptor (Homo sapiens (Human), UniProt Q9H3N8) (assay: Binding assay on recombinant human histamine H4 receptor ([3H]histamine competition, SK-N-MC cell membranes)). Conditions: membranes harvested with 96 well Brandel system; [3H]histamine 10 nM; average of results; read-out: Brandel Ki.
How it was run: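 Membranes from SK-N-MC cells stably or transiently transfected with human H4 receptor, prepared by homogenization and 30,000 g centrifugation in Tris/EDTA. Bound [3H]histamine separated by rapid filtration on PEI-treated GF/C filters, washed with ice-cold Tris/EDTA, counted by scintillation. '>' values denote highest concentration tested.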

Row | Compound | Ki
1 | CC(C)CNc1cc(N2CCN(C)CC2)cnn1 [Example 101, 5-(4-Methylpiperazin-1-yl)-N-(2-methylpropyl)pyridazin-3-amine] | > 10000 nM
2 | CN[C@@H]1CCN(c2cnnc(NC3CCCCC3)c2)C1 [Example 98, N-Cyclohexyl-5-[(3R)-3-(methylamino)pyrrolidin-1-yl]pyridazin-3-amine] | 4.8 nM
3 | CC(C)CNc1cc(N2CCN(C)CC2)ccn1 [Example 21, 4-(4-Methylpiperazin-1-yl)-N-(2-methylpropyl)pyridin-2-amine] | 51.4 nM

Same assay, conditions: membranes harvested with cell harvester; [3H]histamine 10 nM; average of results; read-out: Cell Harvester Ki

Row | Compound | Ki
4 | CN[C@H]1CCN(c2ccnc(NC[C@H]3CC[C@H]4C[C@@H]3C4(C)C)c2)C1 [Example 224, N-{[(1S,2S,5S)-6,6-Dimethylbicyclo[3.1.1]hept-2-yl]methyl}-4-[(3S)-3-(methylamino)pyrrolidin-1-yl]pyridin-2-amine] | 239 nM
5 | CN[C@H]1CCN(c2cnnc(NCC3CCCC3)c2)C1 [Example 382, N-(Cyclopentylmethyl)-5-[(3S)-3-(methylamino)pyrrolidin-1-yl]pyridazin-3-amine] | 138 nM
6 | c1nnc(NCC2CC2)cc1N1CCNCC1 [Example 361, N-(Cyclopropylmethyl)-5-piperazin-1-ylpyridazin-3-amine] | 1230 nM
7 | CC(C)CNc1cc(N2CC[C@H](N)C2)cnn1 [Example 339, 5-[(3S)-3-Aminopyrrolidin-1-yl]-N-(2-methylpropyl)pyridazin-3-amine] | 220 nM
8 | CN[C@@H]1CCN(c2cnnc(N[C@H](C)C3CCCCC3)c2)C1 [Example 378, N-[(1R)-1-Cyclohexylethyl]-5-[(3R)-3-(methylamino)pyrrolidin-1yl]pyridazin-3-amine] | 6.16 nM
9 | CC(C)(C)Nc1cc(N2C[C@H]3CCN[C@H]3C2)ccn1 [Example 288, N-tert-Butyl-4-[(3aR,6aR)-hexahydropyrrolo[3,4-b]pyrrol-5(1H)-yl]pyridin-2-amine] | 39.5 nM
10 | OCCCNc1cc(N2C[C@H]3CCN[C@H]3C2)cnn1 [Example 305, 3-({5-[(3aR,6aR)-Hexahydropyrrolo[3,4-b]pyrrol-5(1H)-yl]pyridazin-3-yl}amino)propan-1-ol] | 1060 nM
11 | CNC1CN(c2cnnc(NC3CCCC3)c2)C1 [Example 332, N-Cyclopentyl-5-[3-(methylamino)azetidin-1-yl]pyridazin-3-amine] | 1660 nM
12 | N[C@@H]1CCN(c2cnnc(NCC3CC3)c2)C1 [Example 369, 5-[(3R)-3-Aminopyrrolidin-1-yl]-N-(cyclopropylmethyl)pyridazin-3-amine] | 619 nM
13 | CNC1CN(c2ccnc(NC3CC3)c2)C1 [Example 281, N-Cyclopropyl-4-[3-(methylamino)azetidin-1-yl]pyridin-2-amine] | 21.3 nM
14 | CC(C)CNc1cc(N2CCN(C)CC2)cnn1 [Example 101, 5-(4-Methylpiperazin-1-yl)-N-(2-methylpropyl)pyridazin-3-amine] | > 10000 nM
15 | CN[C@H]1CCN(c2cnnc(NCCCC(F)(F)F)c2)C1 [Example 389, 5-[(3S)-3-(Methylamino)pyrrolidin-1-yl]-N-(4,4,4-trifluorobutyl)pyridazin-3-amine] | 1750 nM
16 | CNC1CN(c2ccnc(NCC(C)(C)O)c2)C1 [Example 282, 2-Methyl-1-({4-[3-(methylamino)azetidin-1-yl]pyridin-2-yl}amino)propan-2-ol] | 173 nM
17 | CN[C@@H]1CCN(c2ccnc(NC34CC5CC(CC(C5)C3)C4)c2)C1 [Example 218, Adamantan-1-yl-[4-(3R)-(3-methylamino-pyrrolidin-1-yl)-pyridin-2-yl]-amine] | 2.62 nM
18 | c1cc(N2C[C@H]3CCN[C@H]3C2)cc(NC23CC4CC(CC(C4)C2)C3)n1 [Example 296, Adamantan-1-yl-[4-(3aR,6aR)-(hexahydro-pyrrolo[3,4-b]pyrrol-5-yl)-pyridin-2-yl]-amine] | 64.2 nM
19 | CNC1CN(c2cnnc(NCC(C)(C)C)c2)C1 [Example 324, N-(2,2-Dimethylpropyl)-5-[3-(methylamino)azetidin-1-yl]pyridazin-3-amine] | 899 nM
20 | CN[C@@H]1CCN(c2cnnc(NC3CCCCC3)c2)C1 [Example 98, N-Cyclohexyl-5-[(3R)-3-(methylamino)pyrrolidin-1-yl]pyridazin-3-amine] | 4.8 nM
21 | CC(C)(CO)CNc1nccc(N2CC3CCN[C@H]3C2)n1 (stereo in doubt) [Example 148, 3-({4-[(3aR,6aR)-Hexahydropyrrolo[3,4-b]pyrrol-5(1H)-yl]pyrimidin-2-yl}amino)-2,2-dimethylpropan-1-ol] | 250 nM
22 | c1nnc(NCC2CCCC2)cc1N1CCNCC1 [Example 363, N-(Cyclopentylmethyl)-5-piperazin-1-ylpyridazin-3-amine] | 4730 nM
23 | CN[C@@H]1CCN(c2cnnc(NCC3CC4CCC3C4)c2)C1 (stereo partly drawn) [Example 375, N-(Bicyclo[2.2.1]hept-2-ylmethyl)-5-[(3R)-3-(methylamino)pyrrolidin-1-yl]pyridazin-3-amine] | 66.8 nM
24 | Fc1ccc(CNc2nccc(N3C[C@H]4CCN[C@H]4C3)n2)cc1 [Example 142, N-(4-Fluorobenzyl)-4-[(3aR,6aR)-hexahydropyrrolo[3,4-b]pyrrol-5(1H)-yl]pyrimidin-2-amine] | 7090 nM
25 | CN[C@@H]1CCN(c2ccnc(NC(C)C)n2)C1 [Example 78, Isopropyl-[4-(3R)-(3-methylamino-pyrrolidin-1-yl)-pyrimidin-2-yl]-amine] | 6 nM
26 | CN1CCN(c2cnnc(NCC(C)(C)C)c2)CC1 [Example 404, 5-(4-methylpiperazin-1-yl)-N-neopentylpyridazin-3-amine dihydro chloride] | 4300 nM
27 | CC(C)CNc1cc(N2CC[C@H](N)C2)ccn1 [Example 14, 4-[(3S)-3-Aminopyrrolidin-1-yl]-N-(2-methylpropyl)pyridin-2-amine] | 114 nM
28 | c1cc(N2C[C@H]3CCN[C@H]3C2)cc(NC2CCOCC2)n1 [Example 277, 4-[(3aR,6aR)-Hexahydropyrrolo[3,4-b]pyrrol-5(1H)-yl]-N-(tetrahydro-2H-pyran-4-yl)pyridin-2-amine] | 97 nM

Continued, values first:

Row | Ki | Compound
29 | 75.1 nM | CN[C@H]1CCN(c2ccnc(NCC3CCCCC3)c2)C1 [Example 225, N-(Cyclohexylmethyl)-4-[(3S)-3-(methylamino)pyrrolidin-1-yl]pyridin-2-amine]
30 | 2590 nM | CNC1CN(c2cnnc(NCc3ccccc3)c2)C1 [Example 330, N-Benzyl-5-[3-(methylamino)azetidin-1-yl]pyridazin-3-amine]
31 | 193 nM | CNC1CN(c2ccnc(NCC(C)(C)CO)n2)C1 [Example 136, 2,2-Dimethyl-3-({4-[3-(methylamino)azetidin-1-yl]pyrimidin-2-yl}amino)propan-1-ol]
32 | 3.8 nM | N[C@@H]1CCN(c2ccnc(NC3CCCC3)n2)C1 [Example 25, 4-[(3R)-3-Aminopyrrolidin-1-yl]-N-cyclopentylpyrimidin-2-amine]
33 | 23.8 nM | N[C@H]1CCN(c2ccnc(NCC3CCCC3)n2)C1 [Example 149, 4-[(3S)-3-Aminopyrrolidin-1-yl]-N-(cyclopentylmethyl)pyrimidin-2-amine]
34 | 45.4 nM | CNC1CN(c2ccnc(NCCOC)n2)C1 [Example 182, N-(2-Methoxyethyl)-4-[3-(methylamino)azetidin-1-yl]pyrimidin-2-amine]
35 | > 10000 nM | c1ccc(CNc2cc(N3CCNCC3)cnn2)cc1 [Example 348, N-Benzyl-5-piperazin-1-ylpyridazin-3-amine]
36 | 1.2 nM | CN[C@@H]1CCN(c2ccnc(NC3CC4CCC3C4)n2)C1 (stereo partly drawn) [Example 74, Bicyclo[2.2.1]hept-2-yl-[4-(3R)-(3-methylamino-pyrrolidin-1-yl)-pyrimidin-2-yl]-amine]
37 | 43.6 nM | CC(C)(CO)CNc1nccc(N2CC[C@@H](N)C2)n1 [Example 153, 3-({4-[(3R)-3-Aminopyrrolidin-1-yl]pyrimidin-2-yl}amino)-2,2-dimethylpropan-1-ol]
38 | 260 nM | CN[C@H]1CCN(c2ccnc(NCC3CCCC3)c2)C1 [Example 227, N-(Cyclopentylmethyl)-4-[(3S)-3-(methylamino)pyrrolidin-1-yl]pyridin-2-amine]
39 | > 10000 nM | Cc1ccc(CNc2cc(N3CC[C@@H](N)C3)cnn2)cc1 [Example 343, 5-[(3R)-3-Aminopyrrolidin-1-yl]-N-(4-methylbenzyl)pyridazin-3-amine]
40 | 2.04 nM | N[C@@H]1CCN(c2ccnc(NCC3CCCC3)n2)C1 [Example 123, 4-[(3R)-3-Aminopyrrolidin-1-yl]-N-(cyclopentylmethyl)pyrimidin-2-amine]
41 | 247 nM | COCCNc1cc(N2CCNCC2)ccn1 [Example 37, N-(2-Methoxyethyl)-4-piperazin-1-ylpyridin-2-amine]
42 | > 10000 nM | N[C@H]1CCN(c2ccnc(NCc3ccccn3)n2)C1 [Example 118, 4-[(3S)-3-Aminopyrrolidin-1-yl]-N-(pyridin-2-ylmethyl)pyrimidin-2-amine]
43 | > 10000 nM | CN1CCN(c2cnnc(NCc3ccccc3)c2)CC1 [Example 410, N-Benzyl-5-(4-methylpiperazin-1-yl)pyridazin-3-amine]
44 | > 10000 nM | CN1CCN(c2ccnc(NCc3ccccn3)n2)CC1 [Example 62, 4-(4-Methylpiperazin-1-yl)-N-(pyridin-2-ylmethyl)pyrimidin-2-amine]
45 | 2.42 nM | CN[C@@H]1CCN(c2ccnc(NC3CCCCC3)n2)C1 [Example 192, N-Cyclohexyl-4-[(3R)-3-(methylamino)pyrrolidin-1-yl]pyrimidin-2-amine]
46 | 15.6 nM | CN[C@@H]1CCN(c2ccnc(NCCc3ccccc3)n2)C1 [Example 183, 4-[(3R)-3-(Methylamino)pyrrolidin-1-yl]-N-(2-phenylethyl)pyrimidin-2-amine]
47 | 19.8 nM | CNC1CN(c2ccnc(N[C@H]3C[C@H]4CC[C@]3(C)C4(C)C)n2)C1 [Example 126, 4-[3-(Methylamino)azetidin-1-yl]-N-[(1R,2S,4R)-1,7,7-trimethylbicyclo[2.2.1]hept-2-yl]pyrimidin-2-amine]
48 | 33.7 nM | NC1CN(c2ccnc(NC3CC4CCC3C4)n2)C1 (stereo not drawn) [Example 87, 4-(3-Aminoazetidin-1-yl)-N-bicyclo[2.2.1]hept-2-ylpyrimidin-2-amine]
